# Test system: U343MG
# Experiment: Effect on cell apoptosis (U343MG)
# Format: cell-based, human
# Conditions: FIG. 7 and FIG. 8
# Procedure: 8) Effect of RM37 on cell apoptosis (U343MG; 1,2). […] The results are set out in FIG. 7 and FIG. 8.
row,SMILES,Effect on cell apoptosis
1,"CC(=O)OCC1=C(C(=O)OC(C)(C)C)N2C(=O)[C@@H](NC(=O)COc3ccc4c(c3)CCc3c-4[nH]c4ccc(F)cc34)[C@H]2SC1 [RM37, (6R, 7R)-tert-butyl-7-(2-(8-fluoro-6,11-dihydro-5H-benzo[a]carbazol-3-yloxy)acetamido)-3-(acetoxymethyl)-8-oxo-5-thia-1-azabicyclo[4.2.0]oct-2-ene-2-carboxylate]",induces cell apoptosis

# Test system: p53
# Experiment: Stabilisation of p53 (U343MG)
# Format: cell-based, human
# Conditions: due to reduction of p53 bonded to MDM2, not mRNA induction, FIG. 1
row,SMILES,Stabilisation of p53
1,"CC(=O)OCC1=C(C(=O)OC(C)(C)C)N2C(=O)[C@@H](NC(=O)COc3ccc4c(c3)CCc3c-4[nH]c4ccc(F)cc34)[C@H]2SC1 [RM37, (6R, 7R)-tert-butyl-7-(2-(8-fluoro-6,11-dihydro-5H-benzo[a]carbazol-3-yloxy)acetamido)-3-(acetoxymethyl)-8-oxo-5-thia-1-azabicyclo[4.2.0]oct-2-ene-2-carboxylate]",stabilisation of p53

# Target: T1, p53/MDM2 complex (Homo sapiens, UniProt Q00987)
# T1 construct: Test performed on cell lysate of human glioblastoma (GBM) cells U343MG; endogenous in cells; host or cells: U343MG human glioblastoma cells (lysate)
# T1 sequence (Q00987 whole entry, one chain of several): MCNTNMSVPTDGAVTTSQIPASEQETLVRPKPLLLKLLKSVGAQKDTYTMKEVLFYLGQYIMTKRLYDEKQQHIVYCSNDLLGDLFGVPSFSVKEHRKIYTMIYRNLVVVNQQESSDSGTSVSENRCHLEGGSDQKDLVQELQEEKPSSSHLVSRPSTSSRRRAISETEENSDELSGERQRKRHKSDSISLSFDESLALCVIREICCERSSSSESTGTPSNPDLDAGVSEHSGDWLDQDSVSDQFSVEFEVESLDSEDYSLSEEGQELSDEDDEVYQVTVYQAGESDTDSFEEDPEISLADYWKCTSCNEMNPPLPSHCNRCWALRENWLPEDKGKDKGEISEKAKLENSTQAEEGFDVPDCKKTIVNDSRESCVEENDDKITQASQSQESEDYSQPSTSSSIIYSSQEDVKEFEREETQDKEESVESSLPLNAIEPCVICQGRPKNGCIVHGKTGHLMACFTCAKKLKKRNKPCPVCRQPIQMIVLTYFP
# Experiment: Inhibitory effect on p53/MDM2 complex binding, cell lysate of human glioblastoma U343MG cells
# Conditions: 10 uM; cell lysate of human glioblastoma (GBM) cells U343MG; read-out: % inhibition at 10 uM of p53/MDM2 complex binding
# Procedure: Test performed on cell lysate of human glioblastoma (GBM) cells U343MG (1,2).
row,SMILES,inhibition at 10 µM
1,CCNC(=O)COc1ccc2c(c1)S(=O)(=O)Cc1c-2[nH]c2ccc(F)cc12 [RA13],22%
2,Clc1ccc2[nH]c3c(c2c1)COc1ccccc1-3 [RA15],< 5%
3,COc1ccc2c(c1)-c1[nH]c3ccc(Cl)cc3c1CO2 [RA16],< 5%
4,"CC(=O)OCC1=C(C(=O)O)N2C(=O)[C@@H](NC(=O)COc3ccc4c(c3)CCc3c-4[nH]c4ccc(F)cc34)[C@H]2SC1 [RM53, (6R,7R)-7-(2-[(8-fluoro-6,11-dihydro-5H-benzo[a]carbazol-3-yl)oxy]acetamido)-3-(acetoxymethyl)-8-oxy-5-thia-1-azabicyclo[4.2.0]oct-2-ene-2-carboxylic acid]",< 5%
5,CN(C)CCCn1c2ccc(Cl)cc2c2ccc3cc(OCC(=O)O)ccc3c21 [RM58],58%

# Same assay, conditions: cell lysate of human glioblastoma (GBM) cells U343MG
row,SMILES,IC50
1,CC(=O)OCC1=C(C(=O)OC(C)(C)C)N2C(=O)[C@@H](NC(=O)COc3ccc4c(c3)CCc3c-4[nH]c4cccc([N+](=O)[O-])c34)[C@H]2SC1 [GA09a],650 ± 50 nM
2,CC(=O)OCC1=C(C(=O)OC(C)(C)C)N2C(=O)[C@@H](NC(=O)COc3ccc4c(c3)CCc3c-4[nH]c4cc([N+](=O)[O-])ccc34)[C@H]2SC1 [GA09b],225 ± 20 nM
3,COc1cc2c(cc1OC)-c1c(c3c(N)cccc3n1CCCN(C)C)CCC2 [GA17M8],12700 ± 1500 nM
4,O=C(COc1ccc2c(c1)S(=O)(=O)CCc1c-2[nH]c2ccc(F)cc12)NCc1ccc(F)c(F)c1 [RA1],920 ± 20 nM
5,COc1ccc2[nH]c3c(c2c1)CCCc1cc(OCC(=O)O)ccc1-3 [RA2],2900 ± 120 nM
6,CN(C)C(=O)C(CCCNC(=O)OCc1ccccc1)NC(=O)COc1ccc2c(c1)S(=O)(=O)NCc1c-2[nH]c2ccc(F)cc12 (stereo not shown) [RA3],620 ± 50 nM
7,CNC(=O)C(CCCNC(=O)OCc1ccccc1)NC(=O)COc1ccc2c(c1)OCc1c-2[nH]c2ccc(F)cc12 (stereo not shown) [RA18],1350 ± 150 nM
8,CNC(=O)C(CCCNC(=O)OCc1ccccc1)NC(=O)COc1ccc2c(c1)OCc1c-2[nH]c2ccc(OCC(=O)NC(CCc3ccccc3)C(=O)N(C)C)cc12 (stereo not shown) [RA19],450 ± 15 nM
9,CNC(=O)C(CCCNC(=O)OCc1ccccc1)NC(=O)COc1ccc2c(c1)NCc1c-2[nH]c2ccc(F)cc12 (stereo not shown) [RA20],1550 ± 250 nM
10,CC(=O)OCC1=C(C(=O)OC(C)(C)C)N2C(=O)C(NC(=O)COc3ccc4c(c3)S(=O)(=O)Cc3c-4[nH]c4ccc(F)cc34)C2SC1 (stereo not shown) [RA25],143 ± 16 nM
11,COc1ccc(COC(=O)C2N3C(=O)C(NC(=O)COc4ccc5c(c4)S(=O)(=O)Nc4c-5[nH]c5ccc(Br)cc45)C3SC2(C)C)cc1 (stereo not shown) [RA26],120 ± 90 nM
12,CCNC(=O)CO/N=C1/Cc2c([nH]c3ccc(F)cc23)-c2ccc(OCC(=O)NC3C(=O)N4C3SC(C)(C)C4C(=O)OCc3ccc(OC)cc3)cc21 (stereo not shown) [RA29],100 ± 30 nM
13,CCNC(=O)C(CCCNC(=O)OCc1ccccc1)NC(=O)CC1C(NC(=O)COc2ccc3c(c2)S(=O)(=O)Cc2c-3[nH]c3ccc(F)cc23)C(=O)N1CC(=O)OCc1ccc(OC)cc1 (stereo not shown) [RA30],150 ± 10 nM
14,CC(=O)OCC1=C(C(=O)OC(C)(C)C)N2C(=O)C(NC(=O)COc3ccc4c(c3)OCc3c-4[nH]c4ccc(F)cc34)C2S(=O)(=O)C1 (stereo not shown) [RA31],120 ± 45 nM
15,COc1ccc(COC(=O)C2N3C(=O)C(NC(=O)COc4ccc5c(c4)OCc4c-5[nH]c5ccc(Br)cc45)C3SC2(C)C)cc1 (stereo not shown) [RA35],375 ± 22 nM
16,CC(=O)OCC1=C(C(=O)OC(C)(C)C)N2C(=O)C(NC(=O)COc3ccc4c(c3)S(=O)(=O)Nc3c-4[nH]c4ccc(F)cc34)C2SC1 (stereo not shown) [RA36],220 ± 100 nM
17,CCOC(=O)CO/N=C1/Cc2c([nH]c3ccc(F)cc23)-c2ccc(OCC(=O)NC3C(=O)N4C(C(=O)OC(C)(C)C)=C(COC(C)=O)CSC34)cc21 (stereo not shown) [RA37],180 ± 150 nM
18,CC(=O)OCC1=C(C(=O)OC(C)(C)C)N2C(=O)C(NC(=O)COc3ccc4c(c3)S(=O)(=O)NCc3c-4[nH]c4ccc(F)cc34)C2SC1 (stereo not shown) [RA40],197 ± 124 nM
19,CC(C)(C)OC(=O)C1N2C(=O)C(NC(=O)COc3ccc4c(c3)S(=O)(=O)NCc3c-4[nH]c4ccc(F)cc34)C2SC1(C)C (stereo not shown) [RA42],292 ± 25 nM
20,CCNC(=O)C(CCCNC(=O)OCc1ccccc1)NC(=O)CC1C(NC(=O)COc2ccc3c(c2)S(=O)(=O)NCc2c-3[nH]c3ccc(F)cc23)C(=O)N1CC(=O)OCc1ccc(OC)cc1 (stereo not shown) [RA44],223 ± 22 nM
21,CC(=O)OCC1=C(C(=O)OC(C)(C)C)N2C(=O)C(NC(=O)COc3ccc4c(c3)CCc3c-4[nH]c4ccc(Cl)cc34)C2SC1 (stereo not shown) [RM36],280 ± 20 nM
22,"CC(=O)OCC1=C(C(=O)OC(C)(C)C)N2C(=O)[C@@H](NC(=O)COc3ccc4c(c3)CCc3c-4[nH]c4ccc(F)cc34)[C@H]2SC1 [RM37, (6R, 7R)-tert-butyl-7-(2-(8-fluoro-6,11-dihydro-5H-benzo[a]carbazol-3-yloxy)acetamido)-3-(acetoxymethyl)-8-oxo-5-thia-1-azabicyclo[4.2.0]oct-2-ene-2-carboxylate]",222 ± 44 nM
23,CC(=O)OCC1=C(C(=O)OC(C)(C)C)N2C(=O)C(NC(=O)COc3ccc4c(c3)/C(=N\O)Cc3c-4[nH]c4ccc(F)cc34)C2SC1 (stereo not shown) [RM38],222 ± 210 nM
24,CC(=O)OCC1=C(C(=O)OC(C)(C)C)N2C(=O)C(NC(=O)COc3ccc4c(c3)C(=O)Cc3c-4[nH]c4ccc(C(F)(F)F)cc34)C2SC1 (stereo not shown) [RM39],232 ± 200 nM
25,COc1ccc(COC(=O)C2N3C(=O)C(NC(=O)COc4ccc5c(c4)S(=O)(=O)CCc4c-5[nH]c5ccc(F)cc45)C3SC2(C)C)cc1 (stereo not shown) [RM43],228 ± 16 nM
26,CC(=O)OCC1=C(C(=O)OC(C)(C)C)N2C(=O)C(NC(=O)COc3ccc4c(c3)CCc3c-4[nH]c4ccc(Br)cc34)C2SC1 (stereo not shown) [RM47],195 ± 22 nM
27,CCOC(=O)/C(COc1ccc2c(ccc3c4cc(Cl)ccc4n(CCCN(C)C)c23)c1)=N/OC [RM66],2700 ± 120 nM

# Same assay, conditions: read-out: % inhibition at 10 uM of p53/MDM2 complex binding
row,SMILES,inhibition at 10 µM
1,COC(=O)C(NC(=O)COc1ccc2c(ccc3c4cc(Cl)ccc4n(CCCN(C)C)c23)c1)c1ccccc1 (stereo not shown) [RM85],82%

# Test system: U343MG
# Experiment: Effect on cell cycle (U343MG)
# Format: cell-based, human
# Conditions: FIG. 6
# Procedure: 7) Effect of RM37 on cell cycle (U343MG; 1,2). […] The results are set out in FIG. 6.
row,SMILES,Effect on cell cycle
1,"CC(=O)OCC1=C(C(=O)OC(C)(C)C)N2C(=O)[C@@H](NC(=O)COc3ccc4c(c3)CCc3c-4[nH]c4ccc(F)cc34)[C@H]2SC1 [RM37, (6R, 7R)-tert-butyl-7-(2-(8-fluoro-6,11-dihydro-5H-benzo[a]carbazol-3-yloxy)acetamido)-3-(acetoxymethyl)-8-oxo-5-thia-1-azabicyclo[4.2.0]oct-2-ene-2-carboxylate]",blocks the cell cycle in G1

# Test system: protein p53
# Experiment: Stabilisation of intracellular levels of protein p53 (343MG)
# Format: cell-based, human
# Conditions: U343MG; FIG. 3
# From the text: 1) Costa, B; Grillone, A F; Salvetti, A; Rocchiccioli, S; Iacopetti, P; Daniele, S; Da Pozzo, E; Campiglia, P; Novellino, E; Martini, C; Rossi, L An antibody-free strategy for screening putative HDM2 inhibitors using crude bacterial lysates expressing GST-HDM2 recombinant protein Drug Testing and Analysis (2013), 5, 7, 596-601.
# 2) Costa B, Bendinelli S, Gabelloni P, Da Pozzo E, Daniele S, et al. Human Glioblastoma Multiforme: p53 Reactivation by a Novel MDM2 Inhibitor. PLoS ONE (2013) 8(8): e72281. doi:10.1371/journal.pone.0072281.
# The results are set out in FIG. 3.
row,SMILES,Stabilisation of intracellular levels of protein p53
1,"CC(=O)OCC1=C(C(=O)OC(C)(C)C)N2C(=O)[C@@H](NC(=O)COc3ccc4c(c3)CCc3c-4[nH]c4ccc(F)cc34)[C@H]2SC1 [RM37, (6R, 7R)-tert-butyl-7-(2-(8-fluoro-6,11-dihydro-5H-benzo[a]carbazol-3-yloxy)acetamido)-3-(acetoxymethyl)-8-oxo-5-thia-1-azabicyclo[4.2.0]oct-2-ene-2-carboxylate]",stabilises the intracellular levels of protein p53
